From patent US20020015937A1, “Methods for inactivating viruses” (priority 2000, published 2002)

What was measured:
Assay type in all cases: cell-based
bacteriophage MS2 [1] = assay: Inactivation of bacteriophage MS2 in human blood plasma by pressure cycling and 1-(2-aminoethyl)aziridine (plaque assay on E. coli)
[2] = tested on: Feline rhinotrachetis virus; assay: Inactivation of feline rhinotrachetis virus in human blood plasma by pressure and HMT with UV (plaque assay on feline cells Fc3Tg)
Experimental: The infectivity of the virus suspension is determined by duplicate plaque assays on cultured feline cells, Fc3Tg (ATCC CCL 176) with a methylcellulose overlay. The sample is split into four aliquots and are treated as follows: 1) aliquot 1—no treatment; […] 4) aliquot 4—nothing added and pressurized to 30,000 psi for 10 minutes. All samples are held at a temperature of 25° C. throughout the experiment. After treatment, the plasma is serially diluted, mixed with cultured feline cells and plated on agar.

[3] = tested on: Feline rhinotrachetis virus; assay: Inactivation of feline rhinotrachetis virus in human blood plasma by pressure cycling and S-59 with UV (plaque assay on feline cells)
SV 40 = assay: Inactivation of SV 40 in human blood plasma by pressure cycling and DNase (plaque assay on primate cells)
bacteriophage MS2 [4] = assay: Inactivation of bacteriophage MS2 in human blood plasma by pressure and RNase (plaque assay on E. coli)

## NCCN1CC1 [1-(2-aminoethyl)aziridine]
Bacteriophage MS2 [1]; 0.007 M 1-(2-aminoethyl)aziridine, 80,000 psi for 10 minutes, 20 cycles, 25° C., human blood plasma, 10^8 pfu per ml MS2
  reduction in viral titer, combination with pressure cycling versus sum of the reductions of the single treatments: significantly greater reduction in viral titer
Bacteriophage MS2 [1]; similar experiments with lower concentrations of 1-(2-aminoethyl)aziridine, with pressure cycling
  viral inactivation under pressure cycling at lower concentrations: equivalent viral inactivation with lower concentrations of 1-(2-aminoethyl)aziridine or with shorter incubation time

## Cc1oc2c(C)c3oc(=O)cc(C)c3cc2c1CO [HMT, 4′-hydroxymethyl-4,5′,8-trimethylpsoralen]
[2]; 20 μg/ml HMT, 30,000 psi for 10 minutes, then longwave UV light (320 to 380 nm) 10 minutes, 25° C., human blood plasma, 2×10^7 pfu per ml
  reduction in viral titer, combination with pressure versus sum of the reductions of the single treatments: significantly greater reduction in viral titer
[2]; similar experiments with lower concentrations of HMT, with pressure
  viral inactivation under pressure at lower concentrations: equivalent viral inactivation with lower concentrations

## Cc1oc2c(C)c3oc(=O)cc(C)c3cc2c1COCCN [S-59, 4′-(4-amino-2-oxa)butyl-4,5′,8-trimethylpsoralen]
[3]; 150 μM S-59, longwave UV light 10 minutes, 90,000 psi for 5 minutes, 24 cycles, then UV ten minutes, 25° C., human blood plasma, 2×10^7 pfu per ml
  reduction in viral titer, combination with pressure cycling versus sum of the reductions of the single treatments: significantly greater reduction in viral titer
[3]; similar experiments with lower concentrations of S-59, with pressure cycling
  viral inactivation under pressure cycling at lower concentrations: equivalent viral inactivation with lower concentrations

## DNase
SV 40; 20 μg/ml DNase I, 90,000 psi for 10 minutes, 25 cycles, 37° C., human blood plasma, 10^8 pfu per ml SV 40
  reduction in viral titer, combination with pressure cycling versus sum of the reductions of the single treatments: significantly greater reduction in viral titer
SV 40; similar experiments with lower concentrations of DNase, with pressure cycling
  viral inactivation under pressure cycling at lower concentrations: equivalent viral inactivation with lower concentrations of DNase or with shorter incubation time

B1: RNase: ribonuclease, enzyme that hydrolyzes RNA; RNase A used at 10 μg/ml (protein, UniProt P61823 27-150, looked up)
Ribonuclease pancreatic: KETAAAKFERQHMDSSTSAASSSNYCNQMMKSRNLTKDRCKPVNTFVHESLADVQAVCSQKNVACKNGQTNCYQSYSTMSITDCRETGSSKYPNCAYKTTQANKHIIVACEGNPYVPVHFDASV
Bacteriophage MS2 [4]; 10 μg/ml RNase A, 25,000 psi for 20 minutes, 37° C., human blood plasma, 10^8 pfu per ml MS2
  reduction in viral titer, combination with pressure versus sum of the reductions of the single treatments: significantly greater reduction in viral titer
Bacteriophage MS2 [4]; similar experiments with lower concentrations of RNase, with pressure
  viral inactivation under pressure at lower concentrations: equivalent viral inactivation with lower concentrations of RNase or with shorter incubation time
